Tested on: tetO-CMV promoter
Test: Luciferase activity in electroporated HeLa-16 cells treated with desferrioxamine, cobaltous chloride or 2-2′-dipyridyl
Format: cell-based
Settings: HeLa-16 cells electroporated with pTHV, 24 hours
Protocol: HeLa cells were maintained in Dulbecco Modified Medium with Glutamax (Gibco) supplemented with 10% fetal calf serum. For transfection, 5×10e6 HeLa cells were electroporated with a Gene Pulser (Biorad) at 200 V, 960 microfarads in the presence of 25 μg of each plasmid, NaCl 3M in 50 microliters. For control experiments a Bluescript pBSK+ was electroporated instead of the plasmid of interest. Each suspension of cells was then split in aliquots and incubated either in medium alone or in medium supplemented with doxycycline (1 μg/ml), cobaltous chloride (100 μM), desferrioxamine (Def) (130 μM), 2-2′-dipyridyl (DP) (100 μM) or the MG132 proteasome inhibiteur (2.5 μM). For hypoxic conditions cells were placed at 37° C. in a closed chamber with 1% oxygen, 5% CO2 and 94% N2 (Air Liquide).
Electroporated cells were trypsinized and the pellet was lysed in 200 μl LB buffer (Tris Phosphate pH 7.8 25 mM, MgCl2 8 mM, dithiothreitol 1 mM, Triton×100 1%, glycerol 15%). The lysat was then centrifugated at 4° C., the supernatant was collected and luciferase activity was measured using a luminometer (Lumat LB 9501, Berthold). Results were expressed as relative luciferase activity per mg of cell lysates protein. Protein concentration determination was performed with the BCA Protein Assay Kit (Pierce).
The reporter plasmid encoded for a luciferase gene inserted downstream of a minimal CMV promoter that contains seven binding sites for the E.Coli tetracycline repressor (tetO-CMV)(20). HeLa cells were stably transfected with this vector and one clone named HeLa-16 was used in all transient transfection assays.
HeLa-16 cells were electroporated with each pTHV or pTV. After electroporation cells were split into aliquots, and exposed in parallel to 21% O2, 1% O2, 2,2′-dipyridyl (DP), desferrioxamine (Def), cobaltous chloride (Co) or MG132. Luciferase activities were measured 24 hours later and normalised as RLU (relative light unit) per mg of proteins.

Structure (SMILES)	effectiveness of the chemical in inducing transactivation by pTHV
c1ccc(-c2ccccn2)nc1 [DP, 2-2′-dipyridyl]	most effective
[Cl-].[Cl-].[Co+2] [cobalt, cobaltous chloride]	lower than with DP
CC(=O)N(O)CCCCCNC(=O)CCC(=O)N(O)CCCCCNC(=O)CCC(=O)N(O)CCCCCN [desferrioxamine]	lower than with DP
